From US6482921B1, “Uridyl peptide antibiotic (UPA) derivatives, their synthesis and use” (Essential Therapeutics, Inc., priority 1999, dated 2002) come the findings set out here.

Common to all, as to type: cell-based
Assay [1] concerns Pseudomonas aeruginosa PAM 1135. Put plainly: MIC broth microdilution, P. aeruginosa PAM 1135 (high level UPA resistance). To be noted: P. aeruginosa PAM 1135 UPA1^r. Background: Broth dilution looks for growth in wells or tubes with falling amounts of substance.
Assay [2] relates to Escherichia Coli MC 4100 AcrAB. Put plainly: MIC broth microdilution, E. coli MC 4100 AcrAB (ΔAcrAB). To be noted: E. coli AcrAB.
Assay [3] deals with Pasteurella multocida pm002. Put plainly: MIC broth microdilution, P. multocida pm002 (wild type).
In assay [4] the test system is Staphylococcus aureus ATCC 29213. Put plainly: MIC broth microdilution, S. aureus ATCC 29213 (wild type). To be noted: S. aureus ATCC 29213.
The subject of assay [5] is Pseudomonas aeruginosa PAM 1154. Put plainly: MIC broth microdilution, P. aeruginosa PAM 1154 (OprM::Hg). The following applies: P. aeruginosa PAM 1154 OprM::Hg.
Assay [6] has as its system Staphylococcus aureus 8325-4. Put plainly: MIC broth microdilution, S. aureus 8325-4 (wild type). To be noted: S. aureus 8325-4.
Assay [7] deals with Escherichia Coli MC 4100 AcrAB UPA3r. The experiment in a line: MIC broth microdilution, E. coli MC 4100 AcrAB UPA3r (ΔAcrAB, UPA resistant). The following applies: E. coli AcrAB UPA3^r.
Assay [8] deals with Pseudomonas aeruginosa PAM 1020. Put plainly: MIC broth microdilution, P. aeruginosa PAM 1020 (wild type). The following applies: P. aeruginosa PAM 1020.
For assay [9], the system named is Pseudomonas aeruginosa PAM 1323. The experiment in a line: MIC broth microdilution, P. aeruginosa PAM 1323 (medium level UPA resistance).
The subject of assay [10] is Escherichia Coli MC 4100. Put plainly: MIC broth microdilution, E. coli MC 4100 (wild type). The following applies: E. coli MC 4100.

SMILES strings stand for the structures. In brackets after ≈: the same amount, converted by molar mass.

As to `C[C@H](N)C(=O)N(C)[C@@H](C)[C@H](NC(=O)[C@H](Cc1ccc(F)c(F)c1)NC(=O)N[C@@H](Cc1c[nH]c2ccccc12)C(=O)O)C(=O)NC[C@H]1C[C@@H](O)[C@H](n2ccc(=O)[nH]c2=O)O1` [Compound 143, 1-[5′-[(2S,3S)-N^3-L-Alanyl-N^2-[N-[[(1S)-1-carboxy-2-indol-3-ylethyl]carbamoyl]-L-(3,4)-difluorophenylalanyl]-N^3-methyl-2,3-diaminobutyramido]-3′,5′-dideoxy-α-L-arabinofuranosyl]uracil], the “MIC (μg/ml) Broth microdilution” value was greater than 512 µg/mL in [1]; less than 1 µg/mL in assay [2]; 128 µg/mL (≈ 155 µM) in [3]; 512 µg/mL (≈ 620 µM) in [4]; 16 µg/mL (≈ 19.4 µM) in assay [5]; 256 µg/mL (≈ 310 µM) in assay [6]. In addition, the “MIC (μg/ml) Broth microdilution” value was 16 µg/mL (≈ 19.4 µM) in assay [7], 128 µg/mL (≈ 155 µM) in assay [8], greater than 512 µg/mL in assay [9] and 256 µg/mL (≈ 310 µM) in [10].
On to `CC(C)CC(NC(=O)NC(Cc1ccc(O)cc1)C(=O)O)C(=O)NC(C(=O)NCC1CC(O)C(n2ccc(=O)[nH]c2=O)O1)C(C)N(C)C(=O)CN` [Compound 120, 1-[5′-[(2S,3S)-N^2-[N-[[(1S)-1-Carboxy-4-hydroxyphenethyl]carbamoyl]-L-leucyl)-N^3-glycyl-N^3-methyl-2,3-diaminobutyramidol-3′,5′-dideoxy-α-L-arabinofuranosyl]uracil], for which the “MIC (μg/ml) Broth microdilution” value in [1] was greater than 512 µg/mL; in [2] it was 8 µg/mL (≈ 11.1 µM); in assay [3], 512 µg/mL (≈ 712 µM); in assay [4], greater than 512 µg/mL; in [5], 4 µg/mL (≈ 5.57 µM); in assay [6], greater than 512 µg/mL. The “MIC (μg/ml) Broth microdilution” value in [7] was 128 µg/mL (≈ 178 µM); in [8], 16 µg/mL (≈ 22.3 µM); in [9], 512 µg/mL (≈ 712 µM); in [10], greater than 512 µg/mL.
As to `C[C@H](N)C(=O)N(C)[C@@H](C)[C@H](NC(=O)[C@H](Cc1ccccc1)NC(=O)N[C@@H](Cc1c[nH]cn1)C(=O)O)C(=O)NC[C@H]1C[C@@H](O)[C@H](n2ccc(=O)[nH]c2=O)O1` [Compound 149], the “MIC (μg/ml) Broth microdilution” value in assay [1] is greater than 512 µg/mL; in assay [2], 16 µg/mL (≈ 21.6 µM); in [3] it was 256 µg/mL (≈ 346 µM); in assay [4], greater than 512 µg/mL; in assay [5], 8 µg/mL (≈ 10.8 µM); in [6], greater than 512 µg/mL. In addition, the “MIC (μg/ml) Broth microdilution” value in assay [7] was 64 µg/mL (≈ 86.4 µM); in [8] it was 512 µg/mL (≈ 691 µM); in assay [9], greater than 512 µg/mL; in [10], 512 µg/mL (≈ 691 µM).
For the compound `CC(C)CC(N)C(=O)N(C)C(C)C(NC(=O)C(Cc1ccc(F)cc1)NC(=O)NC(Cc1ccc(O)cc1)C(=O)O)C(=O)NCC1CC(O)C(n2ccc(=O)[nH]c2=O)O1` [Compound 107, 1-[5′[(2S,3S)-N^2-[N-[[(1S)-1-Carboxy-4-hydroxyphenethyl]carbamoyl]-L-4-fluorophenylalanyl]-N^3-L-leucyl-N^3-methyl-2,3-diaminobutyramido]-3′,5′-dideoxy-α-L-arabinofuranosyl]uracil], the “MIC (μg/ml) Broth microdilution” value is greater than 512 µg/mL in [1]; less than 1 µg/mL in assay [2]; greater than 512 µg/mL in assay [3]; greater than 512 µg/mL in [4]; 64 µg/mL (≈ 77.4 µM) in [5]; greater than 512 µg/mL in assay [6]. The “MIC (μg/ml) Broth microdilution” value in [7] was 8 µg/mL (≈ 9.67 µM); in assay [8], 256 µg/mL (≈ 310 µM); in assay [9], greater than 512 µg/mL; in assay [10], 16 µg/mL (≈ 19.3 µM).
